# Reference: patent publication US8759499B2, “Lipids for transfection of Eukaryotic cells” (Molecular Transfer, Inc., priority 2005, dated 2014)
# Ends that are not written are not given here.
# System: CHO-K1, NIH3T3, A549, Cos-7 and BE(2)C
# Test: Transfection with β-galactosidase reporter plasmid pCMV•SPORT-β-gal, "before" and "after" peptide protocols, β-gal activity (ONPG, OD 405)
# Type: cell-based
# Settings: FIG. 1-5
# Protocol: Transfection of CHO-K1, NIH3T3, A549, Cos-7 and BE(2)C with β-galactosidase reporter plasmid pCMV•SPORT-β-gal was carried out as follows:
# Cells were plated in a 96-well plates with 100 μl of media containing 10% fetal calf serum the day before transfection such that a desired confluency (70%-95%) was achieved. The following day a transfection agent that includes a liposomal composition of the lipid DMTS (Dimyrstyl-tetrahydroxy-spermine) and DOPE (2:1 DMTS:DOPE) and DNA were mixed in Opti-MEM to form DNA/lipid complexes. Complexes were formed by adding various amounts of lipids (0.1 to 0.35 μl) to 100 μl of Opti-MEM. DNA (100 ng) was added to 100 μl Opti-MEM. The DNA and lipid solutions were then mixed to form DNA lipid complexes. The complexes were incubated for at least 15 minutes after which added to the DNA lipid complexes, was 20 μl of various amounts of a peptide having the sequence of a Prototypical Avian reovirus fusogenic peptide provided herein, as follows:
# and incubated for 15 minutes to form a DNA/lipid/peptide complex. […] Total activity was determined by reading the OD at 405 using Bio-Rad Benchmark Microplate Spectrophotometer. […]
# were added to the DNA mixture and incubated for 15 minutes. […] Total activity was determined by reading the OD at 405 using Bio-Rad Benchmark Microplate Spectrophotometer.
sequence,measurement,setting,value
"RMPPGSCNGATAVFGNVHKKKKKKKKKKKKKKKK [peptide, Prototypical Avian reovirus fusogenic peptide with 16 lysine residues]",amount of lipid required to enhance transfection,"DMTS:DOPE 2:1 liposomes plus peptide, before or after protocol",reduced
same,effect of adding the peptide on transfection,"DMTS:DOPE 2:1 liposomes, peptide added to DNA before lipid, or to DNA/lipid complex",enhancement of transfection
